Data on 8 molecules can be found in paper PMC9851200, “Multiparameter phenotypic screening for endogenous TFEB and TFE3 translocation identifies novel chemical series modulating lysosome function” (Autophagy, 2022).

One data set concerns endogenous TFE3. Briefly: TFE3 nuclear translocation, immunocytochemistry high-content imaging. Type of data set: cell-based. Particulars: for EC50 / Best-Fit Values Span: 24 h, SH-SY5Y; for EC50: read-out: Best-Fit Values EC50 (converted); for Summary: activity in TFE3 assays compared with original NK-140, OT activity; for Best-Fit Values Span: TFE3 assay concentration response.

The target in another data set is T1, TGFBR1 (Homo sapiens, UniProt P36897).
T1 sequence (P36897 34-503): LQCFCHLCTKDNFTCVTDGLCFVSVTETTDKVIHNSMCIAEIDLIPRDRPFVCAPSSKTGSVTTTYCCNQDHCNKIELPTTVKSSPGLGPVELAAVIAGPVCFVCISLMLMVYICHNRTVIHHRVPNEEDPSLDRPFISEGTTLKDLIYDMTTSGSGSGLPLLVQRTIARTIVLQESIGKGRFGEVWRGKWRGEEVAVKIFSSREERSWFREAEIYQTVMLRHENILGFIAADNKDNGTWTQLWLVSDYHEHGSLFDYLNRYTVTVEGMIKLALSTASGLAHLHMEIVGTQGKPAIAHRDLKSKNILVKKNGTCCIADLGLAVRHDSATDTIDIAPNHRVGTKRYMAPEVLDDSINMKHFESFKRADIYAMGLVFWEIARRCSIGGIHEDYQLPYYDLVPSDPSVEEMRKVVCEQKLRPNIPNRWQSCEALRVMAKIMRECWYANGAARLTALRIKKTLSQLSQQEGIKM
As to the kind of experiment: TGFBR1 binding KD (Table S3). Conditions: read-out: TGFBR1 KD. From the text: (§1) Supplement KAUP_A_2095834_SM5251.zip/Supplementary Tables R7.xlsx, sheet "Table S3 - Analogues"

For data set [1], the target named is T2, PRKD2 (Homo sapiens, UniProt Q9BZL6).
T2 sequence (Q9BZL6 1-878): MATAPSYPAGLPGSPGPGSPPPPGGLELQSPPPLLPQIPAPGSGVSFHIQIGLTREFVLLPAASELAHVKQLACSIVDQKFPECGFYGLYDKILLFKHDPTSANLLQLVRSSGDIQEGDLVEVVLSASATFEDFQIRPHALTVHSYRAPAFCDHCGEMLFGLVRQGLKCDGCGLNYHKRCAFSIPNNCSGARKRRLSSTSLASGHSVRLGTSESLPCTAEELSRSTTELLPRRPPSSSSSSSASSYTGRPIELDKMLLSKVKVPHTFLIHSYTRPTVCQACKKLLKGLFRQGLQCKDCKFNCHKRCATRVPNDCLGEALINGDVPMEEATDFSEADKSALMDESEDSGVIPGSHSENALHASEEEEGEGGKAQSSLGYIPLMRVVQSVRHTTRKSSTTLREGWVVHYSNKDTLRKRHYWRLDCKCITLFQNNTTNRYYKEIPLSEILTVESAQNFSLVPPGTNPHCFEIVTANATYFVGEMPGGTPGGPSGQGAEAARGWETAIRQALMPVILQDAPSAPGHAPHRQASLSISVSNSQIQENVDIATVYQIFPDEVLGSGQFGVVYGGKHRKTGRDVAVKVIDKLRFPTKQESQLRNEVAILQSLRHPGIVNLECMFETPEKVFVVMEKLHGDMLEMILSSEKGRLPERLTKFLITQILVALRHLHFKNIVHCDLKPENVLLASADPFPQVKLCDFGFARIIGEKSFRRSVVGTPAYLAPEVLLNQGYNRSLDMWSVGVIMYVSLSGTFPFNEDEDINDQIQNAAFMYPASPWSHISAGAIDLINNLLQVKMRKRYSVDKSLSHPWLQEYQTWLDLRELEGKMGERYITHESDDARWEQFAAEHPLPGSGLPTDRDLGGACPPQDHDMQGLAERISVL
Conditions: cited from earlier work.

Data set [2] has as its target T3, PRKD1 (Homo sapiens, UniProt Q15139).
T3 sequence (Q15139 1-912): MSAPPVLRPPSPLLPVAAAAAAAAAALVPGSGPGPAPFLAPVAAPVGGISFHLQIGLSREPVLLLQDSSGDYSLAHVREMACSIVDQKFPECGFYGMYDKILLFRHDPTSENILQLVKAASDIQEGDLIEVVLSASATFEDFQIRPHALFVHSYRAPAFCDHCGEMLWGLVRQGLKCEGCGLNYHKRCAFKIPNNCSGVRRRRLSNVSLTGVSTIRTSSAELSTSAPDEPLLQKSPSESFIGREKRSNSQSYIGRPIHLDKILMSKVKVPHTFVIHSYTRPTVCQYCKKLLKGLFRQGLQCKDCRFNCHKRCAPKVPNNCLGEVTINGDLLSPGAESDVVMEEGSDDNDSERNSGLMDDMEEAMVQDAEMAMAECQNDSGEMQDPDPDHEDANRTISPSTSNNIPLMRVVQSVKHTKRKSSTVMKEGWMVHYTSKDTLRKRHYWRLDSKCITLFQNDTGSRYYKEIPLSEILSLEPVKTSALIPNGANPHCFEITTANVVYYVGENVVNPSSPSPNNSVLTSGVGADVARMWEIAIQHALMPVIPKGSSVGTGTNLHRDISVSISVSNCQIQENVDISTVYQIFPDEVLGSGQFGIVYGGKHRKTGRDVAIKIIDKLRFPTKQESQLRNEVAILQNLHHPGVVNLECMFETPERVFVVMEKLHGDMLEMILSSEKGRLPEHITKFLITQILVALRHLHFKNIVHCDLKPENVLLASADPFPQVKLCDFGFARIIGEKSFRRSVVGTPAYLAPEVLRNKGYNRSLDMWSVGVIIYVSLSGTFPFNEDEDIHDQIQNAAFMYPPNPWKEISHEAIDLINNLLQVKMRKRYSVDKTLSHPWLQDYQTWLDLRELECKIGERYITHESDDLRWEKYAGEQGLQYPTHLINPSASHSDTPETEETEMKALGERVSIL
Conditions: cited from earlier work.

The target in the next data set is CDC42BPG/DMPK2 (Homo sapiens, UniProt Q6DT37). Particulars: cited from earlier work.
The target of another data set is CDC42BPB/MRCKB (Homo sapiens, UniProt Q9Y5S2). Conditions: cited from earlier work.
In the next data set the target is CIT (Homo sapiens, UniProt O14578). Conditions: cited from earlier work.
Another data set has as its target T4, ACVR1B (Homo sapiens, UniProt P36896).
T4 sequence (P36896 24-505): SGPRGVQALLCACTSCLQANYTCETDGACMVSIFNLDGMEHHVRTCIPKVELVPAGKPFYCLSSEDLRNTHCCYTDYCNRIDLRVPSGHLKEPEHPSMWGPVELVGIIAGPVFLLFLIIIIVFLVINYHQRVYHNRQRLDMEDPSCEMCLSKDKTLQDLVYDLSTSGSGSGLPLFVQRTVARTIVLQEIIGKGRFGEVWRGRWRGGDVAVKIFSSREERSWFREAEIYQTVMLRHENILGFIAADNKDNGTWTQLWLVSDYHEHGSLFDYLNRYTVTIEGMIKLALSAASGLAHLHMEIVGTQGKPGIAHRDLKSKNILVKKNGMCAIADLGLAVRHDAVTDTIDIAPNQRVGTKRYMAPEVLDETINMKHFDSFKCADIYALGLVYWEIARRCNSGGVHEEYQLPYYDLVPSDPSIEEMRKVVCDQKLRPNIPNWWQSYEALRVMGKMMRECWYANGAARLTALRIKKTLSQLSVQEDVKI
Conditions: cited from earlier work.

The next data set has as its target TGFBR2 (Homo sapiens, UniProt P37173). Particulars: cited from earlier work.
A further data set has as its target CSNK1E (Homo sapiens, UniProt P49674). Particulars: cited from earlier work.
A further data set addresses T5, PRKD3 (Homo sapiens, UniProt O94806).
T5 sequence (O94806 1-890): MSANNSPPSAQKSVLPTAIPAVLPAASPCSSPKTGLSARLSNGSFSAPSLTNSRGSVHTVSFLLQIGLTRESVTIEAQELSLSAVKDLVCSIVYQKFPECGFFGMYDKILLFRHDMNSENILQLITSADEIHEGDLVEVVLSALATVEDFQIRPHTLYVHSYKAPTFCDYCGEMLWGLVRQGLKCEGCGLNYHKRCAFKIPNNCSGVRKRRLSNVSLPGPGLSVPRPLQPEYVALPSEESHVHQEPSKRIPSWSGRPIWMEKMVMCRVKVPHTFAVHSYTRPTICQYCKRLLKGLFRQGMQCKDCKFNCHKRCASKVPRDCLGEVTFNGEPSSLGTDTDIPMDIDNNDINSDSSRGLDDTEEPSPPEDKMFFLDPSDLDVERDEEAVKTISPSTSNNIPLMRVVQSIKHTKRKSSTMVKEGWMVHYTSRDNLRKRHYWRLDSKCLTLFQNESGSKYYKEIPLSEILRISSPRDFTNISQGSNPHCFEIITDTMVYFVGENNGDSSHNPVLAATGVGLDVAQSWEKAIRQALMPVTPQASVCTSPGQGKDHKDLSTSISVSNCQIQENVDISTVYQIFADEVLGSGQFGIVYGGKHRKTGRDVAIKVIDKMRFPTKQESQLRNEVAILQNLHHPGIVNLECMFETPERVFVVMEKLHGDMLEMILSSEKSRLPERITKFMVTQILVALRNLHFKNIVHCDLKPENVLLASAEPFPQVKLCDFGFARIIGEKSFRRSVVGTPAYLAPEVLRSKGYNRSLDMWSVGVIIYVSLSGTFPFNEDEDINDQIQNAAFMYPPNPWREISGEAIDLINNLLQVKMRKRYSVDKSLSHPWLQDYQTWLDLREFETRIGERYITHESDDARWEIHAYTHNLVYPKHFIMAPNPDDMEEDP
Particulars: cited from earlier work.

A further data set concerns the target T6, JAK1(JH2) (Homo sapiens, UniProt P23458).
T6 construct: JAK1(JH2)
Particulars: cited from earlier work.

The next data set concerns the target CSNK1D (Homo sapiens, UniProt P48730). Particulars: cited from earlier work.
The next data set addresses PIKFYVE (Homo sapiens, UniProt Q9Y2I7). Conditions: cited from earlier work.
A further data set addresses BMPR1B (Homo sapiens, UniProt O00238). Particulars: cited from earlier work.
The target in another data set is MTOR (Homo sapiens, UniProt P42345). Particulars: cited from earlier work.
The target of data set [3] is T3, PRKD1. Briefly: PRKD1 binding KD (Table S3). Particulars: relation sign.
Source text: as §1

Data set [4] concerns the target T3, PRKD1. Conditions: cited from earlier work. This is another data set of the same source.
For data set [5], the target named is T2, PRKD2. Conditions: read-out: IC50 PRKD2; cited from earlier work.
Setting [6] is: TFE3 assay, second EC50 of biphasic/bell-shaped fit or OT (off-target) activity, unit inferred.

Where two headings read alike, the source gives them in different places.

Sequence of CIT (O14578 whole entry): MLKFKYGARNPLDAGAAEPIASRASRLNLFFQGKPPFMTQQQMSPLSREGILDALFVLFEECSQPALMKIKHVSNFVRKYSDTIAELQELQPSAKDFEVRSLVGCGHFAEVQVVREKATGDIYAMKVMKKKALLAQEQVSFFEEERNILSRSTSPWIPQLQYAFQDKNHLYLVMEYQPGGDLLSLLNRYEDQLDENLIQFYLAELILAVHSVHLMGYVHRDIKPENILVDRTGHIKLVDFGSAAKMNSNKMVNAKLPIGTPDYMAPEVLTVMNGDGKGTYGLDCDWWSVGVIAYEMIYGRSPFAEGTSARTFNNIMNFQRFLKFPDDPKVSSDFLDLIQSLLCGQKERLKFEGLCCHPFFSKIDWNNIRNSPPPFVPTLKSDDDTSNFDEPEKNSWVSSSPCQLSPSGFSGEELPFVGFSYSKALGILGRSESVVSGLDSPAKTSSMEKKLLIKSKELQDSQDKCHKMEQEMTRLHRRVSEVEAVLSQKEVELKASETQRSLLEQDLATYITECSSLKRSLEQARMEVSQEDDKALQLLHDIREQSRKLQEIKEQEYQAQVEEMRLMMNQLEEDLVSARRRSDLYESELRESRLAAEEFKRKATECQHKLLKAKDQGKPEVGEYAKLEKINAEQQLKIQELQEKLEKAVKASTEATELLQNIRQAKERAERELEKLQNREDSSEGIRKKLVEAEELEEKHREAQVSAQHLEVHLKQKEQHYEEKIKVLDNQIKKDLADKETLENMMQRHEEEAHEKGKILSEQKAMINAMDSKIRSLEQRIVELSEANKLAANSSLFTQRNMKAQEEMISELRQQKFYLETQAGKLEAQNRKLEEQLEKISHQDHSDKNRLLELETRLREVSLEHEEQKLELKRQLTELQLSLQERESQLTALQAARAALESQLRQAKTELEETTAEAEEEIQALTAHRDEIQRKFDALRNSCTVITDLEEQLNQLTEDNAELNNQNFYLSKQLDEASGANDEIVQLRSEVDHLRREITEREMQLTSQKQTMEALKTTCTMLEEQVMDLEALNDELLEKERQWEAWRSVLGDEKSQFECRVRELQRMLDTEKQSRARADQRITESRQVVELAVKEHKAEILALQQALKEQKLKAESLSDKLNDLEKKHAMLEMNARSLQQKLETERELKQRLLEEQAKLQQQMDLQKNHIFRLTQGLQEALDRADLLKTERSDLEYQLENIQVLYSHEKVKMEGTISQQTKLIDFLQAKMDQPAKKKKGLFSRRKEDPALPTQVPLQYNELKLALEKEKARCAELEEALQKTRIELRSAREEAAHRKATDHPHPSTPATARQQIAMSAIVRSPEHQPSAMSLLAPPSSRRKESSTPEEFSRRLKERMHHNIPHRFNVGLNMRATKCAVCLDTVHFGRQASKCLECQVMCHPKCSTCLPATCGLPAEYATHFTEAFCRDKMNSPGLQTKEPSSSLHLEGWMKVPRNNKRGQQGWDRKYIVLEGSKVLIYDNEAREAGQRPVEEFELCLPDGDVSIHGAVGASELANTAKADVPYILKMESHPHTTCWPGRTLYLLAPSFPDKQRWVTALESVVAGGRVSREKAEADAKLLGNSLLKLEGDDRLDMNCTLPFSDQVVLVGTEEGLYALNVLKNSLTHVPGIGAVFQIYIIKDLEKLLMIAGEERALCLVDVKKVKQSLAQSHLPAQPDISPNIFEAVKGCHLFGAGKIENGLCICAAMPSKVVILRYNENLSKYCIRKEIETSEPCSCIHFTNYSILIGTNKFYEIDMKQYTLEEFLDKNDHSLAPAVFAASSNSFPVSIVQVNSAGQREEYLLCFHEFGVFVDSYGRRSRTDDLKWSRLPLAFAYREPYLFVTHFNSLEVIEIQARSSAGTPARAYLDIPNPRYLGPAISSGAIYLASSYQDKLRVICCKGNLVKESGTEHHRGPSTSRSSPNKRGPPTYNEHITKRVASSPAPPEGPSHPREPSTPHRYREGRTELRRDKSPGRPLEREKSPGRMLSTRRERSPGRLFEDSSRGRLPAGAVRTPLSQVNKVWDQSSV
Sequence of CSNK1D (P48730 whole entry): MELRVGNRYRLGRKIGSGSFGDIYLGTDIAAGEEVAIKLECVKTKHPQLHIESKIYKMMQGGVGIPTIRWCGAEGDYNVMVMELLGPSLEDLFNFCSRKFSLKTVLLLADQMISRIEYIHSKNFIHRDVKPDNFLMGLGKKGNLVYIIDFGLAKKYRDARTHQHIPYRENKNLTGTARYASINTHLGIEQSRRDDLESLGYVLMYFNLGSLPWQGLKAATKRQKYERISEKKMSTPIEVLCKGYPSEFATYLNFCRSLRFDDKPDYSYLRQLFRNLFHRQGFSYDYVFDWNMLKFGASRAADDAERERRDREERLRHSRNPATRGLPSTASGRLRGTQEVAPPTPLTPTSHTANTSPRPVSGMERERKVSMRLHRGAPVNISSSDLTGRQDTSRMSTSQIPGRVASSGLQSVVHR
Sequence of BMPR1B (O00238 14-502): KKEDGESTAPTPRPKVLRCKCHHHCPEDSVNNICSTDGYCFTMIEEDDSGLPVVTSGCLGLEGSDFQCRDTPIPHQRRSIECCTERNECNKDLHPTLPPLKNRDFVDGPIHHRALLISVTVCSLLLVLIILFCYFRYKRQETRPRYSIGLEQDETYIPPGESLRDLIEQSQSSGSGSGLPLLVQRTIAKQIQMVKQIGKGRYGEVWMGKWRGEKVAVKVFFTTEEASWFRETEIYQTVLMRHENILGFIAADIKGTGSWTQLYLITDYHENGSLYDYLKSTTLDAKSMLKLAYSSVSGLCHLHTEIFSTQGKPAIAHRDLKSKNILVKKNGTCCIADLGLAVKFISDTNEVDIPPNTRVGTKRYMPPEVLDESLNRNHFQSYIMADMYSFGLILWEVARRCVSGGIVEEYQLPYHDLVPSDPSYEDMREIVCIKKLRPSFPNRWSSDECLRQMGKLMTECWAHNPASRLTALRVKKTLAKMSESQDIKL
Sequence of TGFBR2 (P37173 23-567): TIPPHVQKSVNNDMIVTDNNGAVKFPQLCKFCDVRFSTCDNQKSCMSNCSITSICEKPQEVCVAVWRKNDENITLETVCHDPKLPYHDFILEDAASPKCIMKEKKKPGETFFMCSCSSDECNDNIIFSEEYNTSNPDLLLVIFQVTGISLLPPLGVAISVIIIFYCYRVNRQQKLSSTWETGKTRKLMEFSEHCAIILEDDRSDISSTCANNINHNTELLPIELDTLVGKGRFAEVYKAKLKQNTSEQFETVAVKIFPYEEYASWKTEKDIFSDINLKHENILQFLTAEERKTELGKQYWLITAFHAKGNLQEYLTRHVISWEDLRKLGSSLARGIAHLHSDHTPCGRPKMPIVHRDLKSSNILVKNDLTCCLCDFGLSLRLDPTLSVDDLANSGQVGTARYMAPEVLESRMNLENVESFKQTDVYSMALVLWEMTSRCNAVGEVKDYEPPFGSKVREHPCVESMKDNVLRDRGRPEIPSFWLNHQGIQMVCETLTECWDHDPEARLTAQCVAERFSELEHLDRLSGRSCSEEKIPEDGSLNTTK
T6 sequence (P23458 583-855 limits assumed): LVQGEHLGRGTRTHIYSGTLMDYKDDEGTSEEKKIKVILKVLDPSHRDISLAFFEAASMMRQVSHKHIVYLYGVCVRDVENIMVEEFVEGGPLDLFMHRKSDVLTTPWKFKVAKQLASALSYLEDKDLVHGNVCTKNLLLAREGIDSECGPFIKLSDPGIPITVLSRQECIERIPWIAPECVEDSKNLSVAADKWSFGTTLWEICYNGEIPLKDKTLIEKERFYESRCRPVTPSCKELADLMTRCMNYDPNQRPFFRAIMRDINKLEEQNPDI
Sequence of CSNK1E (P49674 whole entry): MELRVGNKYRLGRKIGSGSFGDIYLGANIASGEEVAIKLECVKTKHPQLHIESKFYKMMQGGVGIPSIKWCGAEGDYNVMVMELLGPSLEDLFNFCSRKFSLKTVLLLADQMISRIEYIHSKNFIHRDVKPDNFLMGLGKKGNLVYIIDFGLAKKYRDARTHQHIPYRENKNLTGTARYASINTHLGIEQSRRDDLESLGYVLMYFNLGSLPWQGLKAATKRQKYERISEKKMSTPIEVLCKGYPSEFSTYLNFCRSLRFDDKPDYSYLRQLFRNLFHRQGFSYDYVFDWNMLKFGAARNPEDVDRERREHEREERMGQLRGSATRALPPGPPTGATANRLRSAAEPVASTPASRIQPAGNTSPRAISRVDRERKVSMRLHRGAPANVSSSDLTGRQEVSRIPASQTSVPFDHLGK
Procedure for SH-SY5Y cells: Total cell lysis with 5 µL 5% Triton-X 100 (Sigma-Aldrich, T8787) is used as a positive control for the assay and toxicity is expressed as a percentage of luminescence under DMSO conditions.

Take `Cc1cccc(-c2nc(Nc3ccc4nc(C)sc4c3)c3ccccc3n2)n1` [NK165]: the concentration giving a half-maximal response (EC50) – broadly, the concentration that produces a half-maximal response – is 3.8 µM in the data set on endogenous TFE3 (setting [6]) and 0.58 µM with endogenous TFE3 (TFE3 assay, µM). Further, the Summary result in the data set with endogenous TFE3 is “Stronger, Some OT activity”. Further, the Kd (commonly the concentration at which binding is half-saturated) on TGFBR1 was above 10000 nM.
Take `Cc1cccc(-c2nc(Nc3ccc4[nH]ncc4c3)c3ccccc3n2)n1` [GW857175]: the “KINOMEscan binding PRKD2” value on PRKD2 [1] was 99.9%. In addition, the “KINOMEscan binding PRKD1” value at PRKD1 [2] was 99.8%. The “KINOMEscan binding CDC42BPG/DMPK2” value at CDC42BPG/DMPK2 is on record as 72%. Besides, the “KINOMEscan binding CDC42BPB/MRCKB” value on CDC42BPB/MRCKB is reported as 72%. In addition, the “KINOMEscan binding CIT” value on CIT is given as 9%. In addition, on ACVR1B, the “KINOMEscan binding ACVR1B” value is 100%. Further, the “KINOMEscan binding TGFBR2” value on TGFBR2 is reported as 0%. Moreover, the “KINOMEscan binding CSNK1E” value at CSNK1E is listed as 28%. Besides, the “KINOMEscan binding PRKD3” value at PRKD3 is listed as 98.1%. Further, at JAK1(JH2), the “KINOMEscan binding JAK1(JH2)” value is 83%. Besides, the “KINOMEscan binding CSNK1D” value on CSNK1D is reported as 28%. Moreover, at PIKFYVE, the “KINOMEscan binding PIKFYVE” value is listed as 85%. Also, the “KINOMEscan binding BMPR1B” value on BMPR1B was 34%. Also, the “KINOMEscan binding MTOR” value on MTOR is 0%.
Regarding `Cc1cccc(-c2nc(Oc3ccc4scnc4c3)c3ccccc3n2)n1` [NK220], in the data set on endogenous TFE3, the “Best-Fit Values Span” value is listed as 0.80 and the Summary entry is listed as “Inactive”. Further, the Kd at TGFBR1 is above 10000 nM.
Turning to `Cc1cccc(-c2nc(Nc3ccc4nn(C)nc4c3)c3ccccc3n2)n1` [NK223], in the data set with endogenous TFE3, the “Best-Fit Values Span” value came to 88.41 and the Summary entry is on record as “Only OT activity”. Besides, the concentration giving a half-maximal response (EC50) in the data set on endogenous TFE3 (setting [6]) was 1.34 µM. Besides, on TGFBR1, the dissociation constant (Kd) is above 10000 nM.
`Cc1cccc(-c2nc(Nc3ccc4nnn(C)c4c3)c3ccccc3n2)n1` [NK222]: the EC50 in the data set with endogenous TFE3 (setting [6]) is 3.12 µM; with endogenous TFE3 (TFE3 assay, µM), 0.22 µM. For the same molecule, the Summary result in the data set on endogenous TFE3 is listed as “Stronger, Some OT activity”. Also, on TGFBR1, the Kd is above 10000 nM.
With `COc1ccc(Nc2nc(-c3cccc(C)n3)nc3ccccc23)cc1` [NK170], the 50% effective concentration (EC50) with endogenous TFE3 (Homo sapiens) was 0.85 µM; in the data set on endogenous TFE3 (Homo sapiens, TFE3 assay, µM) it was 0.83 µM. In addition, the Summary result in the data set on endogenous TFE3 is reported as “Weaker, Strong OT activity”. In addition, the Kd on PRKD1 [3] came out at 780 nM.
Consider `CC[C@@H](N)CNc1ccnc(-c2cc(-c3cnn(C)c3)ccc2O)n1.Cl.Cl` [CRT0066101, reference compound], for which, in the data set with SH-SY5Y cells, the “Cellular toxicity (AK release and nuclear count, in words)” value is “pronounced cellular toxicity”; the “Concentrations toxic to cells (reduction in nuclear count and increase in AK signal)” value is reported as “above 1 µM”. In addition, at PRKD1 [4], the IC50 (usually the point on the concentration scale where inhibition reaches its midpoint) was 1 nM. Moreover, the IC50 at PRKD2 [5] was 2.5 nM.
Turning to `Cc1cccc(-c2nc(Nc3ccc4ccsc4c3)c3ccccc3n2)n1` [NK219], in the data set with endogenous TFE3 (Homo sapiens), the EC50 was 2.51 µM. The EC50 with endogenous TFE3 (Homo sapiens, TFE3 assay, µM) is 2.5 µM. For the same molecule, in the data set on endogenous TFE3, the “Best-Fit Values Span” value is given as 44.67 and the Summary entry was “Weaker, Strong OT activity”. This molecule also showed a Kd on PRKD1 [3] of 650 nM.
